These results are taken from PubChem BioAssay (NCI).

SMILES strings stand for the structures.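 Method: 48-hour compound exposure of cells in 96-well plates, five concentrations, linear interpolation of endpoints. Here, GI50 denotes the concentration required for 50% inhibition of growth. TGI is the concentration that stops growth completely.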 Where only a bound is given, the exact number is not on record here.

Common to all, as to test: inhibition of tumour cell growth, NCI panel, 48 h
For assay [1], the system named is K-562 leukemia.
The subject of assay [2] is SK-MEL-5 melanoma.
Assay [3] relates to SNB-75 CNS.
In assay [4] the test system is SN12C renal.
Assay [5] relates to TK-10 renal.
Assay [6] concerns RXF 393 renal.
In assay [7] the test system is OVCAR-8 ovarian.
In assay [8] the test system is HCC-2998 colon.
Assay [9] has as its system OVCAR-5 ovarian.
Assay [10] relates to HOP-62 NSCLC.

On to `CN1C(=O)CN2C(Cl)(Cl)C2(c2ccccc2F)c2cc([N+](=O)[O-])ccc21` (stereo not drawn), for which the TGI was greater than 100 µM in assay [1]; greater than 100 µM in [2]; greater than 100 µM in assay [3]; 80.7 µM in [4]; greater than 100 µM in assay [5]; 66 µM in [6]. The TGI in [7] was greater than 100 µM; in assay [8], 86 µM; in [9], greater than 100 µM; in assay [10], greater than 100 µM.
In the case of `CC(C)OC(=O)Nc1cccc(Cl)c1`, the TGI in assay [1], in assay [2], in [3], in assay [4], in assay [5] and in assay [6] was greater than 100 µM in each case. Further, the TGI in assay [7], in assay [8], in [9] and in assay [10] was greater than 100 µM each time.
On to `COc1ccc(CC2c3cc(OC)c(OC)c(OC)c3CC[N+]2(C)C)cc1Oc1ccc(CC2c3cc4c(c(OC)c3CC[N+]2(C)C)OCO4)cc1` (stereo not drawn), for which the TGI in assay [1], in assay [2], in [3], in assay [4], in [5] and in assay [7] was greater than 100 µM each time. In addition, the TGI in assay [8] and in assay [9] was greater than 100 µM in each case.
In the case of `Nc1nc(Cl)cc(NCCCNc2cc(Cl)nc(N)n2)n1`, the TGI in assay [1], in assay [2], in assay [3], in assay [4], in [5] and in assay [6] was greater than 100 µM each time. Further, the TGI in [7], in [8], in [9] and in assay [10] was greater than 100 µM each time.
Take `Cn1cc(-c2csc(-c3cn(C)c4ccc(Br)cc34)n2)c2cnccc21`: the GI50 in [1] is 239 nM; in [2], 1700 nM; in assay [3], 1280 nM; in [4], 1530 nM; in assay [5] it was 1710 nM; in [6] it was 1700 nM. In addition, the GI50 was 1900 nM in assay [7], 1900 nM in assay [8], 1780 nM in [9] and 1900 nM in [10]. In addition, the TGI in assay [1] came to 0.563 µM; in assay [2], 3.09 µM; in assay [3], 2.6 µM; in [4], 2.92 µM; in assay [5], 3.22 µM; in assay [6], 3.2 µM. For the same compound, the TGI in assay [7] stood at 3.61 µM; in [8], 3.57 µM; in [9], 3.22 µM; in assay [10], 3.49 µM.
Regarding `CC(N)C(=O)OCN1C(=O)C2C3C=CC(C2C1=O)C1C2C(=O)N(COC(=O)C(C)N)C(=O)C2C31` (stereo not drawn), the TGI was 77 µM in assay [1]; 34.1 µM in assay [2]; 85.5 µM in assay [3]; 55.8 µM in assay [4]; greater than 100 µM in assay [5]; 38.7 µM in [6]. In addition, the TGI is 47.8 µM in [7], 97.9 µM in assay [8], greater than 100 µM in assay [9] and greater than 100 µM in assay [10].
With `NC(=O)c1ccc(NS(=O)(=O)c2ccc(N)cc2)nc1`, the TGI in assay [1], in [2], in assay [3], in assay [4], in [5] and in assay [7] was greater than 100 µM each time. For the same compound, the TGI in assay [8], in assay [9] and in assay [10] was greater than 100 µM each time.
As to `COC(=O)C(=O)C(C(=O)C1=NS(=O)(=O)c2cc(S(N)(=O)=O)c(Cl)cc2N1)c1nc2ccc(C(=O)c3ccccc3)cc2[nH]c1=O` (stereo not drawn), the TGI in assay [1], in assay [2], in [4], in assay [5], in assay [6] and in assay [7] was greater than 100 µM each time. Besides, the TGI in assay [8] and in assay [9] was greater than 100 µM in each case.
On to `Cc1cccc(O)c1-c1nnc(CCCCCCCCc2nnc(-c3c(C)cccc3O)n2N)n1N`, for which the TGI in assay [1] was greater than 100 µM; in [2] it was greater than 100 µM; in assay [3], greater than 58.1 µM; in assay [4] it was greater than 100 µM; in assay [5], greater than 59 µM; in [8], greater than 100 µM. Further, the results for the TGI in assay [9] and in [10] were greater than 100 µM and 62 µM, respectively.
As for `Cc1ccc(S(=O)(=O)N2c3ccccc3[C@H]3CCc4c([nH]c5ccccc45)[C@H]32)cc1`, the TGI in [1], in assay [2], in [3], in assay [4], in [5] and in assay [6] was greater than 100 µM each time. For the same compound, the TGI in [7], in assay [8], in [9] and in assay [10] was greater than 100 µM throughout.
As for `c1ccc(CSC2(SCc3ccccc3)CCCC2)cc1`, the TGI in assay [1], in assay [2], in [3], in assay [4], in [5] and in [6] was greater than 10 µM in each case. The TGI in [7], in [8], in [9] and in [10] was greater than 10 µM throughout.
